Results taken from patent publication US9763445B2, “Safened herbicidal compositions comprising a pyridine carboxylic acid herbicide” (Dow AgroSciences, LLC, priority 2014, dated 2017).

Legend:
cleavers (GALAP) = assay: Postemergence greenhouse trial, % visual injury on cleavers; assay type: in vivo, Galium aparine
Description: (§1) Seeds of the desired test plant species were planted in Sun Gro MetroMix® 306 planting mixture, which typically has a pH of 6.0 to 6.8 and an organic matter content of about 30 percent, in plastic pots with a surface area of 103.2 square centimeters (cm^2). When required to ensure good germination and healthy plants, a fungicide treatment and/or other chemical or physical treatment was applied. The plants were grown for 7-36 days (d) in a greenhouse with an approximate 14-hour (h) photoperiod which was maintained at about 23° C. during the day and 22° C. during the night. Nutrients and water were added on a regular basis and supplemental lighting was provided with overhead metal halide 1000-Watt lamps as necessary. The plants were employed for testing when they reached the second or third true leaf stage.
(§2) Weighed amounts of technical material were dissolved in a volume of 97:3 volume per volume (v/v) acetone/dimethyl sulfoxide (DMSO) to stock solutions. […] The concentrated stock solutions were diluted with an aqueous mixture of 1.5% v/v of Agri-dex crop oil concentrate to provide the appropriate application rates. Compound requirements are based upon a 12 milliliter (mL) application volume at a rate of 187 liters per hectare (L/ha). Stocks solutions of the safeners were prepared following the same procedure. Spray solutions of the safeners and experimental compound mixtures were prepared by adding the stock solutions to the appropriate amount of dilution solution to form a 12 mL spray solution in two-way combinations. Formulated compounds were applied to the plant material with an overhead Mandel track sprayer equipped with 8002E nozzles calibrated to deliver 187 L/ha over an application area of 0.503 square meters (m^2) at a spray height of 18 inches (43 centimeters (cm)) above average plant canopy. Control plants were sprayed in the same manner with the solvent blank. All herbicide application (component a) rates are in g ae/ha and all safener (component b) rates are in g ai/ha.
(§3) The treated plants and control plants were placed in a greenhouse as described above and watered by sub-irrigation to prevent wash-off of the test compounds. After 20-22 d, the condition of the test plants as compared with that of the control plants was determined visually and scored on a scale of 0 to 100 percent where 0 corresponds to no injury and 100 corresponds to complete kill. The condition of the test plants was compared with that of the control plants as determined visually and scored on a scale of 0 to 100 percent, where 0 corresponds to no injury and 100 corresponds to complete kill. Colby's equation was used to determine the herbicidal effects expected from the mixtures.
(§4) The safener cloquintocet-mexyl was combined with compound 1, compound 2, compound 3, compound 7, compound 8, compound 9, compound 10, compound 11, compound 12, compound 13, compound 14, compound 15, compound 16, compound 17, compound 18, compound 19, and compound 20, and applied to spring wheat (TRZAS), winter wheat (TRZAW), and spring barley (HORVS) and the phytotoxicity of the herbicidal compositions was measured. […]

winter wheat (TRZAW) = assay: Postemergence greenhouse trial, % visual injury on winter wheat; assay type: in vivo, Triticum aestivum; conditions: TRZAW; for % visual injury, Ob: CQC-m 0 g/ha
Description: as §1, §2, §3, §4

prickly lettuce (LACSE) = assay: Postemergence greenhouse trial, % visual injury on prickly lettuce; assay type: in vivo, Lactuca serriola; conditions: LACSE
Description: as §1, §2
as §3, with “mixtures. […]” for “mixtures.”

cornflower (CENCY) [1] = assay: Postemergence greenhouse trial, % visual injury on cornflower; assay type: in vivo, Centaurea cyanus or Cyanus segetum; conditions: CENCY; for % visual injury, Ob: CQC-m 0 g/ha
shepherd's purse (CAPBP) = assay: Postemergence greenhouse trial, % visual injury on shepherd's purse; assay type: in vivo, Capsella bursa-pastoris; conditions: CAPBP, CQC-m 0
Description: as §1, §2, §3, §4

cornflower (CENCY) [2] = assay: Postemergence greenhouse trial, % visual injury on cornflower; assay type: in vivo, Centaurea cyanus or Cyanus segetum; conditions: CENCY, CQC-m 0
Description: as §1, §2, §3, §4

wild buckwheat (POLCO) = assay: Postemergence greenhouse trial, % visual injury on wild buckwheat; assay type: in vivo, Polygonum convolvulus; conditions: for % visual injury, observed (Ob): POLCO
Description: as §1, §2, §3
(§5) The safener cloquintocet-mexyl was combined with compound 1, compound 2, compound 4, compound 5, and compound 6, and applied to corn/maize (ZEAMX) and spring wheat (TRZAS) and the phytotoxicity of the herbicidal compositions was measured. In addition, the efficacy of the herbicidal composition on velvetleaf (ABUTH, Abutilon theophrasti), pigweed (AMARE, Amaranthus retroflexus), winter rape (BRSNW, Brassica napus), lambsquarters (CHEAL, Chenopodium album), thistle (CIRAR, Cirsium arvense), nutsedge (CYPES, Cyperus esculentus), poinsettia (EPHHL, Euphorbia heterophylla), wild buckwheat (POLCO, Polygonum convolvulus), giant foxtail (SETFA, Setaria faberi), and chickweed (STEME, Stellaria media) was evaluated.
as §4

chickweed (STEME) = assay: Postemergence greenhouse trial, % visual injury on chickweed; assay type: in vivo, Stellaria media; conditions: STEME
Description: as §1, §2, §3
as §5, with “evaluated. […]” for “evaluated.”

[3] = compound 4.375 g/ha, CQC-m 0 g/ha
[4] = compound 8.75 g/ha, CQC-m 0 g/ha
[5] = compound 17.5 g/ha, CQC-m 0 g/ha
[6] = compound 2 4.380 + CQC-m 0 g/ha

Nc1cc(-c2ccc3cc[nH]c3c2F)nc(C(=O)O)c1Cl [compound 15]
% visual injury, Ob (cleavers (GALAP); [3]): 85%
% visual injury, Ob (cleavers (GALAP); [4]): 85%
% visual injury, Ob (cleavers (GALAP); [5]): 93%
% visual injury, Ob (cleavers (GALAP); compound 35 g/ha, CQC-m 0 g/ha): 93%
% visual injury, Ob (cleavers (GALAP); compound 70 g/ha, CQC-m 0 g/ha): 90%

COc1c(C(=O)O)nc(-c2ccc3cc[nH]c3c2F)c(F)c1N [compound 13]
% visual injury, Ob (winter wheat (TRZAW); compound 35 g/ha): 70%
% visual injury, Ob (winter wheat (TRZAW); compound 70 g/ha): 80%
% visual injury, Ob (cleavers (GALAP); [3]): 40%
% visual injury, Ob (cleavers (GALAP); [4]): 70%
% visual injury, Ob (cleavers (GALAP); [5]): 80%
% visual injury, Ob (cleavers (GALAP); compound 35 g/ha, CQC-m 0 g/ha): 100%
% visual injury, Ob (cleavers (GALAP); compound 70 g/ha, CQC-m 0 g/ha): 100%
% visual injury, Ob (prickly lettuce (LACSE); [3]): 85%
% visual injury, Ob (prickly lettuce (LACSE); [4]): 93%
% visual injury, Ob (prickly lettuce (LACSE); [5]): 95%
% visual injury, Ob (prickly lettuce (LACSE); compound 35 g/ha, CQC-m 0 g/ha): 95%
% visual injury, Ob (prickly lettuce (LACSE); compound 70 g/ha, CQC-m 0 g/ha): 100%
% visual injury, Ob (cornflower (CENCY) [1]; compound 4.375 g/ha): 100%
% visual injury, Ob (cornflower (CENCY) [1]; compound 8.75 g/ha): 100%
% visual injury, Ob (cornflower (CENCY) [1]; compound 17.5 g/ha): 100%
% visual injury, Ob (cornflower (CENCY) [1]; compound 35 g/ha): 100%
% visual injury, Ob (cornflower (CENCY) [1]; compound 70 g/ha): 100%

COC(=O)c1nc(-c2ccc3cc[nH]c3c2F)c(F)c(N)c1OC [compound 12]
% visual injury, Ob (shepherd's purse (CAPBP); compound 4.380 g/ha): 70%
% visual injury, Ob (shepherd's purse (CAPBP); compound 17.5 g/ha): 100%
% visual injury, Ob (shepherd's purse (CAPBP); compound 70 g/ha): 100%
% visual injury, Ob (cornflower (CENCY) [2]; compound 4.380 g/ha): 85%
% visual injury, Ob (cornflower (CENCY) [2]; compound 8.75 g/ha): 95%
% visual injury, Ob (cornflower (CENCY) [2]; compound 17.5 g/ha): 100%
% visual injury, Ob (cornflower (CENCY) [2]; compound 35 g/ha): 100%
% visual injury, Ob (cornflower (CENCY) [2]; compound 70 g/ha): 100%

COC(=O)c1nc(-c2ccc3cc[nH]c3c2F)c(F)c(N)c1Cl [compound 8]
% visual injury, observed (Ob) (wild buckwheat (POLCO); compound 8 4.380 + CQC-m 0 g/ha): 85%
% visual injury, observed (Ob) (wild buckwheat (POLCO); compound 8 8.75 + CQC-m 0 g/ha): 97%
% visual injury, observed (Ob) (wild buckwheat (POLCO); compound 8 17.5 + CQC-m 0 g/ha): 93%
% visual injury, observed (Ob) (wild buckwheat (POLCO); compound 8 35 + CQC-m 0 g/ha): 100%
% visual injury, observed (Ob) (wild buckwheat (POLCO); compound 8 70 + CQC-m 0 g/ha): 100%

Nc1c(F)c(-c2ccc3scnc3c2)nc(C(=O)O)c1Cl [compound 17]
% visual injury, Ob (cleavers (GALAP); 4.375 g/ha, applied alone): 50%
% visual injury, Ob (cleavers (GALAP); 8.75 g/ha, applied alone): 60%
% visual injury, Ob (cleavers (GALAP); 17.5 g/ha, applied alone): 70%
% visual injury, Ob (cleavers (GALAP); 35 g/ha, applied alone): 90%
% visual injury, Ob (cleavers (GALAP); 70 g/ha, applied alone): 90%

Nc1c(F)c(-c2ccc3cc[nH]c3c2F)nc(C(=O)OCc2ccccc2)c1Cl [compound 2]
% visual injury, observed (Ob) (winter wheat (TRZAW); compound 2 35 + CQC-m 0 g/ha): 20%
% visual injury, observed (Ob) (winter wheat (TRZAW); compound 2 70 + CQC-m 0 g/ha): 30%
% visual injury, observed (Ob) (winter wheat (TRZAW); compound 2 140 + CQC-m 0 g/ha): 50%
% visual injury, observed (Ob) (cleavers (GALAP); [6]): 20%
% visual injury, observed (Ob) (cleavers (GALAP); compound 2 8.75 + CQC-m 0 g/ha): 30%
% visual injury, observed (Ob) (cleavers (GALAP); compound 2 17.5 + CQC-m 0 g/ha): 93%
% visual injury, observed (Ob) (cleavers (GALAP); compound 2 35 + CQC-m 0 g/ha): 85%
% visual injury, observed (Ob) (cleavers (GALAP); compound 2 70 + CQC-m 0 g/ha): 97%
% visual injury, observed (Ob) (prickly lettuce (LACSE); [6]): 40%
% visual injury, observed (Ob) (prickly lettuce (LACSE); compound 2 8.75 + CQC-m 0 g/ha): 99%
% visual injury, observed (Ob) (prickly lettuce (LACSE); compound 2 17.5 + CQC-m 0 g/ha): 99%
% visual injury, observed (Ob) (prickly lettuce (LACSE); compound 2 35 + CQC-m 0 g/ha): 100%
% visual injury, observed (Ob) (prickly lettuce (LACSE); compound 2 70 + CQC-m 0 g/ha): 100%
% visual injury, Ob (wild buckwheat (POLCO); alone, 35 g/ha): 100%
% visual injury, observed (Ob) (chickweed (STEME); [6]): 25%
% visual injury, observed (Ob) (chickweed (STEME); compound 2 8.75 + CQC-m 0 g/ha): 68%
% visual injury, observed (Ob) (chickweed (STEME); compound 2 17.5 + CQC-m 0 g/ha): 97%
% visual injury, observed (Ob) (chickweed (STEME); compound 2 35 + CQC-m 0 g/ha): 100%
% visual injury, observed (Ob) (chickweed (STEME); compound 2 70 + CQC-m 0 g/ha): 100%
% visual injury, observed (Ob) (cornflower (CENCY) [1]; [6]): 100%
% visual injury, observed (Ob) (cornflower (CENCY) [1]; compound 2 8.75 + CQC-m 0 g/ha): 100%
% visual injury, observed (Ob) (cornflower (CENCY) [1]; compound 2 17.5 + CQC-m 0 g/ha): 100%
% visual injury, observed (Ob) (cornflower (CENCY) [1]; compound 2 35 + CQC-m 0 g/ha): 100%
% visual injury, observed (Ob) (cornflower (CENCY) [1]; compound 2 70 + CQC-m 0 g/ha): 100%

CO/C=N/c1c(F)c(-c2ccc3cc[nH]c3c2F)nc(C(=O)OC)c1Cl [compound 10]
% visual injury, Ob (shepherd's purse (CAPBP); compound 4.380 g/ha): 30%
% visual injury, Ob (shepherd's purse (CAPBP); compound 17.5 g/ha): 100%
% visual injury, Ob (shepherd's purse (CAPBP); compound 70 g/ha): 100%
% visual injury, Ob (cornflower (CENCY) [2]; compound 4.380 g/ha): 100%
% visual injury, Ob (cornflower (CENCY) [2]; compound 8.75 g/ha): 100%
% visual injury, Ob (cornflower (CENCY) [2]; compound 17.5 g/ha): 100%
% visual injury, Ob (cornflower (CENCY) [2]; compound 35 g/ha): 100%
% visual injury, Ob (cornflower (CENCY) [2]; compound 70 g/ha): 100%
% visual injury, Ob (prickly lettuce (LACSE); compound 4.380 g/ha, CQC-m 0): 95%
% visual injury, Ob (prickly lettuce (LACSE); compound 8.75 g/ha, CQC-m 0): 100%
% visual injury, Ob (prickly lettuce (LACSE); compound 17.5 g/ha, CQC-m 0): 100%
% visual injury, Ob (prickly lettuce (LACSE); compound 35 g/ha, CQC-m 0): 100%
% visual injury, Ob (prickly lettuce (LACSE); compound 70 g/ha, CQC-m 0): 100%
